According to the supplement of paper PMC10307832:

Columns and labels:
Assay in all cases: relative viability (nuclei count vs DMSO), 5 days (fraction); higher = more cells survive
Kobe2602 + Linsitinib = compound: C1=CC(=CC=C1NC(=S)NNC2=C(C=C(C=C2[N+](=O)[O-])C(F)(F)F)[N+](=O)[O-])F [Kobe2602] + C[C@]1(O)C[C@@H](c2nc(-c3ccc4ccc(-c5ccccc5)nc4c3)c3c(N)nccn32)C1 [Linsitinib] (partner 1 µM)
Summary of the method: (§1)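 Nuclei were stained with Hoechst during a one-step fixation (final 0.05% Triton X-100, 1% formaldehyde, 1 ug/ml Hoechst) carried out 5 days after dosing, then counted on 4× images. The cells, lung cancer lines in 1536-well plates, had been dosed by pin tool the day after seeding with one drug alone or a fixed anchor-drug dose plus five library-drug doses (not always all listed) in √10 steps. Relative viability is the nuclei count in treated wells divided by that in vehicle wells, and each value is the median of duplicate plates.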

Kobe2602 + Phenformin = compound: C1=CC(=CC=C1NC(=S)NNC2=C(C=C(C=C2[N+](=O)[O-])C(F)(F)F)[N+](=O)[O-])F [Kobe2602] + N=C(N)NC(=N)NCCc1ccccc1 [Phenformin] (partner 250 µM)
Summary of the method: as §1

Kobe2602 + Bortezomib = compound: C1=CC(=CC=C1NC(=S)NNC2=C(C=C(C=C2[N+](=O)[O-])C(F)(F)F)[N+](=O)[O-])F [Kobe2602] + CC(C)C[C@H](NC(=O)[C@H](Cc1ccccc1)NC(=O)c1cnccn1)B(O)O [Bortezomib] (partner 0.002 µM)
Summary of the method: as §1

Zosuquidar + Dasatinib = compound: O[C@@H](COc1cccc2ncccc12)CN1CCN([C@@H]2c3ccccc3[C@@H]3[C@H](c4ccccc42)C3(F)F)CC1 [Zosuquidar] + Cc1nc(Nc2ncc(C(=O)Nc3c(C)cccc3Cl)s2)cc(N2CCN(CCO)CC2)n1 [Dasatinib] (partner 0.075 µM)
Summary of the method: as §1

Cell Line	relative viability (Kobe2602 + Linsitinib; first compound 0.2 µM)	relative viability (Kobe2602 + Linsitinib; first compound 0.6325 µM)	relative viability (Kobe2602 + Linsitinib; first compound 2 µM)	relative viability (Kobe2602 + Linsitinib; first compound 6.325 µM)	relative viability (Kobe2602 + Linsitinib; first compound 20 µM)	relative viability (Kobe2602 + Phenformin; first compound 0.2 µM)	relative viability (Kobe2602 + Phenformin; first compound 0.6325 µM)	relative viability (Kobe2602 + Phenformin; first compound 2 µM)	relative viability (Kobe2602 + Phenformin; first compound 6.325 µM)	relative viability (Kobe2602 + Phenformin; first compound 20 µM)	relative viability (Kobe2602 + Bortezomib; first compound 0.2 µM)	relative viability (Kobe2602 + Bortezomib; first compound 0.6325 µM)	relative viability (Kobe2602 + Bortezomib; first compound 2 µM)	relative viability (Kobe2602 + Bortezomib; first compound 6.325 µM)	relative viability (Kobe2602 + Bortezomib; first compound 20 µM)	relative viability (Zosuquidar + Dasatinib; first compound 0.01 µM)	relative viability (Zosuquidar + Dasatinib; first compound 0.03162 µM)	relative viability (Zosuquidar + Dasatinib; first compound 0.1 µM)	relative viability (Zosuquidar + Dasatinib; first compound 0.3162 µM)	relative viability (Zosuquidar + Dasatinib; first compound 1 µM)
LCLC-97TM1	0.221	0.179	0.159	0.196	0.202	0.44	0.428	0.434	0.39	0.42	0.691	0.757	0.501	0.611	0.526	0.776	0.756	0.73	0.761	0.898
LU99A	0.538	0.53	0.471	0.585	0.631	0.814	0.916	0.79	0.906	0.931	1.13	1.39	1.12	1.17	1.22	0.458	0.577	0.505	0.552	0.569
NCI-H1299	0.887	0.979	0.961	1.03	0.945						1.01	0.982	0.986	1.07	0.995					
NCI-H1355	0.784	0.782	0.749	0.769	0.787	0.479	0.479	0.476	0.415	0.433	1.21	1.21	1.01	1.07	1.13	0.681	0.726	0.623	0.85	0.711
HARA	0.959	1.02	0.948	0.839	0.847	0.468	0.506	0.465	0.467	0.478	1.17	1.1	0.994	1.14	1.12	0.252		0.26	0.257	0.27
LXF-289	0.944	0.985	0.941	0.952	0.919	0.495	0.577	0.494	0.536	0.518	0.968	1.05	0.955	0.97	0.988	0.217	0.125	0.237	0.301	0.182
201T	0.968	1.04	1.05	0.955	0.941	0.463	0.449	0.425	0.394	0.405	0.956	1.05	1.12	1.18	1.13	0.611	0.551	0.526	0.632	0.581
HCC-827	0.902	0.936	0.925	0.955	0.922	0.428	0.441	0.464	0.364	0.413	1.09	1.15	0.965	1.01	1.08	0.293	0.348	0.237	0.272	0.351
NCI-H1703	0.609	0.99	0.499	0.749	0.377						0.371	0.379	0.286	0.367	0.342					
NCI-H1975	0.969	0.917	0.978	0.859	0.818	0.433	0.442	0.427	0.379	0.388	0.363	0.392	0.297	0.365	0.358	0.335	0.313	0.433	0.374	0.352
NCI-H2023	0.575	0.728	0.528	0.586	0.682	0.419	0.442	0.432	0.352	0.244	0.954	0.995	0.873	0.945	0.927	0.46	0.436	0.557	0.532	0.674
ChaGo-K-1						0.564	0.574	0.523	0.463	0.463	1.04	1.09	0.788	1.06	0.946	0.615	0.583	0.602	0.737	0.624
COR-L 105	0.711	0.985	0.574	0.944	0.988	0.487	0.491	0.422	0.542	0.494	0.688	1.14	0.739	0.692	0.746	0.353	0.334	0.341	0.358	0.279
SK-MES-1	1	1.26	1.04	1.07	1.07	0.676	0.715	0.683	0.589	0.455						0.361	0.339	0.343	0.365	0.361
A549	0.562	0.687	0.583	0.524	0.578	0.163	0.182	0.199	0.192	0.196										
NCI-H23	0.528	0.706	0.477	0.652	0.525	0.75	0.782	0.762	0.723	0.814	1.01	1.11	0.973	0.998	1.09	0.713	0.811	0.739	0.983	0.806
NCI-H1993	0.725	0.826	0.753	0.698	0.783	0.51	0.453	0.503	0.501	0.515	0.978	1.09	0.897	0.985	1.02	0.66	0.507	0.501	0.564	0.654
Calu-6	0.911	0.975	0.897	0.954	0.895						1.11	1.04	0.945	0.971	0.951					
NCI-H1623						0.633	0.571	0.563	0.555	0.589						0.499	0.634	0.487	0.607	0.498
NCI-H460	0.826	0.768	0.709	0.894	0.725	0.516	0.513	0.614	0.514	0.499	0.99	1.09	1.09	1.21	1.05	0.428	0.364	0.453	0.855	0.485

Cell Line	relative viability (Kobe2602 + Linsitinib; first compound 0.2 µM)	relative viability (Kobe2602 + Linsitinib; first compound 0.6325 µM)	relative viability (Kobe2602 + Linsitinib; first compound 2 µM)	relative viability (Kobe2602 + Linsitinib; first compound 6.325 µM)	relative viability (Kobe2602 + Linsitinib; first compound 20 µM)	relative viability (Kobe2602 + Phenformin; first compound 0.2 µM)	relative viability (Kobe2602 + Phenformin; first compound 0.6325 µM)	relative viability (Kobe2602 + Phenformin; first compound 2 µM)	relative viability (Kobe2602 + Phenformin; first compound 6.325 µM)	relative viability (Kobe2602 + Phenformin; first compound 20 µM)	relative viability (Kobe2602 + Bortezomib; first compound 0.2 µM)	relative viability (Kobe2602 + Bortezomib; first compound 0.6325 µM)	relative viability (Kobe2602 + Bortezomib; first compound 2 µM)	relative viability (Kobe2602 + Bortezomib; first compound 6.325 µM)	relative viability (Kobe2602 + Bortezomib; first compound 20 µM)	relative viability (Zosuquidar + Dasatinib; first compound 0.01 µM)	relative viability (Zosuquidar + Dasatinib; first compound 0.03162 µM)	relative viability (Zosuquidar + Dasatinib; first compound 0.1 µM)	relative viability (Zosuquidar + Dasatinib; first compound 0.3162 µM)	relative viability (Zosuquidar + Dasatinib; first compound 1 µM)
NCI-H3122	1.01	1.05	1.01	1.06	1.11	0.425	0.402	0.378	0.394	0.364	1.09	0.96	0.93	1.04	1.08	0.666	0.653	0.787	0.863	0.914
HCC-44	0.739	0.668	0.632	0.624	0.766	0.207	0.21	0.249	0.239	0.322	0.882	0.897	0.826	0.905	0.813					
HCC-78	0.61	0.495		0.459	0.611	0.693	0.699	0.736	0.727	0.9	0.543	0.574	0.446	0.244	0.57	0.553	0.386		0.331	0.254
COR-L23	0.798	1.09	0.941	0.894	0.939	0.469	0.453	0.427	0.463	0.422	0.88	1.04	0.914	1.07	0.92	0.459	0.474	0.474	0.581	0.485
NCI-H2009	1.13	1.2	1.1	1.19	1.15	0.454	0.503	0.504	0.421	0.305	0.961	1.11	0.97	1.04	0.949	0.281	0.174	0.244	0.331	0.284
NCI-H322M	0.88	1.01	0.883	1	0.921	0.798	0.857	0.808	0.826	0.771	1.23	1.23	1.28	1.2	1.21	0.242	0.229	0.242	0.269	0.227
NCI-H2228	0.576	0.733	0.809	0.756	0.598	0.35	0.449	0.359	0.295	0.361	1.11	0.849	0.953	0.947	1.12	0.507	0.573	0.612	0.621	0.551
NCI-H358	0.684	0.77	0.771	0.758	0.732	0.381	0.391	0.323	0.371	0.353						0.144	0.172	0.142	0.183	0.153
NCI-H2342						0.658	0.607	0.563	0.553	0.662						0.275	0.312	0.327	0.313	0.299
LK-2	0.618	0.614	0.415	0.643	0.567	0.461	0.579	0.489	0.624	0.516						0.31	0.41	0.291	0.297	0.314
NCI-H1650						0.483	0.57	0.395	0.388	0.366	0.232	0.192	0.207	0.192	0.207	0.298	0.29	0.284	0.338	0.314
NCI-H522						0.731	0.63	0.646	0.732	0.623						0.933	0.739	0.867	0.853	1.45
NCI-H2170						0.414	0.475	0.423	0.406	0.403						0.464	0.661	0.636	0.767	0.58
SW 900						0.609	0.843	0.521	0.691	0.775						0.795	0.609	0.57	0.545	0.61
NCI-H1944	1.22	1.26	1.28	1.17	1.29	0.212	0.216	0.206	0.201	0.209						0.206	0.159	0.187	0.244	0.229
EBC-1	0.796	0.975	0.893	0.938	0.871						0.528	0.479	0.539	0.511	0.612					
NCI-H1395	0.992	1	1.04	1.05	1.12	0.484	0.435	0.453	0.451	0.456						0.404	0.378	0.307	0.406	0.431
IA-LM	0.506	0.462	0.632	0.476	0.573							0.873	0.707	0.765	0.759					
NCI-H1793	0.856	0.883	0.806	0.831	0.958	0.33	0.398	0.399	0.333	0.446						0.375	0.3		0.489	0.488
